Reference: PMC9226319, “Peripherally restricted transthyretin-based delivery system for probes and therapeutics avoiding opioid-related side effects” (Nature Communications, 2022)
Several values for one entry are separate records, joined by “and”; a condition that tells them apart may be missing. Equal values may be shown once. Entries after “also recorded” stand apart in the source; their conditions may differ. Read-outs that look alike come from different tables or passages of the source.

Experiments:
[1] = biological target: T1, human mu-opioid receptors (Homo sapiens, UniProt P35372); assay: biochemical; assay type: biochemical; parameters: host or cells: CHO-K1 (Chinese hamster ovary), membrane preparation
T1 sequence (P35372 whole entry): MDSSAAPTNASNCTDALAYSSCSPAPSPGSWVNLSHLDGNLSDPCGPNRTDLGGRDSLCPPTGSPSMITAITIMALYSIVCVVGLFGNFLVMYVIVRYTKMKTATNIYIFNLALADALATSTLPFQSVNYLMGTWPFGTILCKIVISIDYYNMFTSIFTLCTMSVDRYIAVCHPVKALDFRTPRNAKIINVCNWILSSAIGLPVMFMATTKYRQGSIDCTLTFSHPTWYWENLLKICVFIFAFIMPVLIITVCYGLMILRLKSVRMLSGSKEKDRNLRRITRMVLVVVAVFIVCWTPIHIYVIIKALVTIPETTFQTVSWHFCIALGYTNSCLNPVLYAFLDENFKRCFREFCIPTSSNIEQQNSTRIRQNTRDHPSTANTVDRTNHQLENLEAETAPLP

in vivo [2] = settings: male, Sprague Dawley, rat, sc
[3] = rat; for plasma concentration: SC 16 µmol/kg, individual animals
purified human TTR = purified human TTR (Homo sapiens, UniProt P02766); assay: Fluorescence polarization (FP) binding assay, ligands to TTR in buffer
in vivo [4] = settings: male, Sprague Dawley, rat, iv
[5] = Long-term stability assay of AG10-L2-Nal in PBS buffer; assay type: physicochemical; settings: 100 µM, 37 °C, analysed weekly for four weeks
[6] = Serum stability assay of AG10-L2-Nal, rat serum; assay type: in vitro ADME; settings: 100 µM
Protocol: AG10-L2-Nal (100 μM) was incubated in sera, and the concentration remaining in respective media was determined at 0 and 48 h using HPLC. Bar graphs represent the mean of % compound remaining ± s.d. […] The plasma, brain tissue, and CSF were collected at 30 min after dosing. The ratio of the brain (ng/g) versus plasma concentration (ng/mL) is expressed as the percentage brain to plasma ratio. The ratio of the CSF (ng/mL) versus plasma concentration (ng/mL) is expressed as the percentage CSF to plasma ratio. Bar graphs show the respective mean (±s.d.) (n = 3 for each group). […] The concentration of the test compounds in plasma was determined at different time points and expressed as means ± s.d. of three biological replicates. Source data are provided as a Source Data file. […]
(Taiwan). The experimental procedure was performed as reported12. […]
Serum stability assay of AG10-L2-Nal. […] 100 μL samples were analyzed at 0 h, 24 h, and 48 h time intervals. […] The supernatant was analyzed using Waters™ XBridge C18 column (4.6x250 mm, 5μm) on Waters e2695 separations module HPLC system connected to a Waters 2998 photodiode array detector operating between the UV ranges of 200-400 nm. […]

in vivo [7] = settings: male, Sprague Dawley, rat, iv, percentage CSF to plasma ratio
[8] = biological target: T1, human mu-opioid receptors; assay: biochemical; assay type: binding
[9] = biological target: T2, kappa opioid receptor (rat) (Rattus norvegicus, UniProt P34975); assay: Rat kappa-opioid receptor (agonist radioligand [3H] U 69593) binding assay; settings: for % Inhibition of Control Specific Binding: kappa-opioid receptor binding, replicates 1st/2nd
T2 construct: Eurofins Cerep (France)
T2 sequence (P34975 whole entry): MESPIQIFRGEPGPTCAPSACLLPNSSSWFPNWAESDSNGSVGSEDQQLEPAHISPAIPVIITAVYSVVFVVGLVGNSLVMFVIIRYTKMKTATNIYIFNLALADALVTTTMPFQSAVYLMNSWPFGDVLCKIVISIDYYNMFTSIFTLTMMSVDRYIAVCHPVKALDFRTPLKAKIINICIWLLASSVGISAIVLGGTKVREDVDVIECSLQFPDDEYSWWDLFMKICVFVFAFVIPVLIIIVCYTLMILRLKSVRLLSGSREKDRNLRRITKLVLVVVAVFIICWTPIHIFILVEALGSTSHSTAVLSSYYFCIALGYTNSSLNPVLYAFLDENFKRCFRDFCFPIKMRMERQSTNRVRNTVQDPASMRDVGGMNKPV

SMILES: C=CCN1CC[C@]23c4c5ccc(O)c4O[C@H]2[C@@H](OCc2cn(CCNCCCCCCOc4cc(OCCCc6c(C)n[nH]c6C)cc(C(=O)O)c4)nn2)CC[C@@]3(O)[C@H]1C5 [AG10-L2-Nal]
- IC50 [1]: 7.5 nM
- Kb [1]: 0.81 nM
- agonism relative to DAMGO [1]: 2%
- fold increase of morphine EC50 [1]: 950 fold
- fold more potent than naloxegol in functional assay [1]: 10 fold
- AUC(0-inf) (in vivo [2]; 16 umol/kg): 17.6 ± 2.54 µM·h
- CL/F (in vivo [2]; 16 umol/kg): 15.3 mL/min/kg
- Vd/F (in vivo [2]; 16 umol/kg): 4.89 ± 1.83 L/kg
- half-life (in vivo [2]; 16 umol/kg): 3.62 ± 0.76 h
- concentration at 0.25 h (in vivo [2]; 16 µmol/kg, plasma concentration, SC 16 µmol/kg, 0.25 h, individual animals): 7560 nM
- concentration at 0.5 h (in vivo [2]; 16 µmol/kg, plasma concentration, SC 16 µmol/kg, 0.5 h, individual animals): 4680 nM
- concentration at 0.75 h (in vivo [2]; 16 µmol/kg, plasma concentration, SC 16 µmol/kg, 0.75 h, individual animals): 4580 nM
- concentration at 1 h (in vivo [2]; 16 µmol/kg, plasma concentration, SC 16 µmol/kg, 1 h, individual animals): 4240 nM
- concentration at 2 h (in vivo [2]; 16 µmol/kg, plasma concentration, SC 16 µmol/kg, 2 h, individual animals): 2370 nM
- concentration at 4 h (in vivo [2]; 16 µmol/kg, plasma concentration, SC 16 µmol/kg, 4 h, individual animals): 1470 nM
- concentration at 6 h (in vivo [2]; 16 µmol/kg, plasma concentration, SC 16 µmol/kg, 6 h, individual animals): 1050 nM
- concentration at 8 h (in vivo [2]; 16 µmol/kg, plasma concentration, SC 16 µmol/kg, 8 h, individual animals): 727 nM
- concentration at 24 h (in vivo [2]; 16 µmol/kg, plasma concentration, SC 16 µmol/kg, 24 h, individual animals): 40.6 nM
- plasma concentration ([3]; 0.03 h): 1290 nM and 1240 nM and 552 nM
- plasma concentration ([3]; 0.25 h): 5340 nM and 6840 nM
- plasma concentration ([3]; 0.5 h): 3960 nM and 4020 nM
- plasma concentration ([3]; 0.75 h): 3620 nM and 2900 nM
- plasma concentration ([3]; 1 h): 3480 nM and 3260 nM
- plasma concentration ([3]; 2 h): 1350 nM and 1760 nM
- plasma concentration ([3]; 4 h): 1120 nM and 1540 nM
- plasma concentration ([3]; 6 h): 623 nM and 938 nM
- plasma concentration ([3]; 8 h): 699 nM and 1120 nM
- plasma concentration ([3]; 12 h): 166 nM and 200 nM and 516 nM
- plasma concentration ([3]; 24 h): 49.7 nM and 31.1 nM
- k ([3]; single SC dose 16 µmol/kg): 0.20 ± 0.04 h⁻¹
- Kd (purified human TTR): 333 nM
- % Fluorescence polarization (mean) (purified human TTR; log [nM] inhibitor 0.990): 100.000%
- % Fluorescence polarization (mean) (purified human TTR; log [nM] inhibitor 1.291): 106.646%
- % Fluorescence polarization (mean) (purified human TTR; log [nM] inhibitor 1.592): 105.531%
- % Fluorescence polarization (mean) (purified human TTR; log [nM] inhibitor 1.893): 103.770%
- % Fluorescence polarization (mean) (purified human TTR; log [nM] inhibitor 2.194): 97.021%
- % Fluorescence polarization (mean) (purified human TTR; log [nM] inhibitor 2.495): 90.708%
- % Fluorescence polarization (mean) (purified human TTR; log [nM] inhibitor 2.796): 79.479%
- % Fluorescence polarization (mean) (purified human TTR; log [nM] inhibitor 3.097): 54.083%
- % Fluorescence polarization (mean) (purified human TTR; log [nM] inhibitor 3.398): 38.835%
- % Fluorescence polarization (mean) (purified human TTR; log [nM] inhibitor 3.699): 31.550%
- % Fluorescence polarization (mean) (purified human TTR; log [nM] inhibitor 4.000): 21.649%
- % Fluorescence polarization (mean) (purified human TTR; log [nM] inhibitor […]): 0.000%
- AUC(0-inf) (in vivo [4]; 4.84 umol/kg): 16.9 ± 1.09 µM·h
- Vd (in vivo [4]; 4.84 umol/kg): 0.12 ± 0.02 L/kg
- clearance (in vivo [4]; 4.84 umol/kg): 4.83 mL/min/kg
- half-life (in vivo [4]; 4.84 umol/kg): 5.98 ± 0.81 h
- concentration at 0.03 h (in vivo [4]; 4.84 µmol/kg, plasma concentration, IV 4.84 µmol/kg, 0.03 h, individual animals): 48800 nM
- concentration at 1 h (in vivo [4]; 4.84 µmol/kg, plasma concentration, IV 4.84 µmol/kg, 1 h, individual animals): 295 nM
- concentration at 2 h (in vivo [4]; 4.84 µmol/kg, plasma concentration, IV 4.84 µmol/kg, 2 h, individual animals): 234 nM
- concentration at 12 h (in vivo [4]; 4.84 µmol/kg, plasma concentration, IV 4.84 µmol/kg, 12 h, individual animals): 9.6 nM
- chemical stability in PBS buffer [5]: stable in buffer for a least one month; also recorded: chemically stable in phosphate buffer saline for at least one month at 37 °C
- % compound remaining in rat serum ([6]; 0 h, replicates): 101.22% and 98.78% and 100.03%
- % compound remaining in rat serum ([6]; 37 °C, 48 h, table replicates): 100% and 99.06% and 98.97% and 99.95%
- Kp (in vivo [7]): 0.01
- % Inhibition of Control Specific Binding [8]: 88.5%
- fold better mu-opioid receptor binding affinity than MNTX [8]: 17 fold
- fold higher mu-opioid receptor binding affinity than AG10-L1-Nal [8]: 5.7 fold
- Ki ([8]; binding affinity to mu-opioid receptor (Ki)): 0.35 nM
- Ki ([8]; binding affinity to mu-opioid receptor (Ki) in the presence of TTR): 1.3 nM
- Ki ([9]; [3H] U 69593 displacement, read-out: binding affinity to kappa-opioid receptor (Ki)): 0.12 nM
- % Inhibition of Control Specific Binding ([9]; 1.0E-07 M): 98.2% and 98.6%
- % Inhibition of Control Specific Binding ([9]; 1.0E-08 M): 96.0%
- % Inhibition of Control Specific Binding ([9]; 1.0E-09 M): 83.2% and 82.8%
- % Inhibition of Control Specific Binding ([9]; 1.0E-10 M): 41.5% and 28.1%
- % Inhibition of Control Specific Binding ([9]; 5.0E-08 M): 98.3% and 97.6%
